Assay results taken from patent publication US8278037B2, “N-acetylgalactosamine transferases and nucleic acids encoding the same” (National Institute of Advanced Industrial Science and …, priority 2002, dated 2012).

Legend:
Assay type in all cases: biochemical
[1] = target: T1, NGalNAc-T2 (Homo sapiens, UniProt Q6L9W6, K411R); assay: Assay for acceptor substrates of glycosyl-transferase activities (GalNAc-T assay, HPLC); conditions: Table 6, O-glycan type acceptors 500 μM; GlcNAcβ-Bz = 100
Protocol: (§1) For the reaction of GalNAc-T assay, 50 mM MES buffer (pH 6.5) containing 0.1% triton X-100, 1 mM UDP-GalNAc, 10 mM MnCl2 and 500 μM each acceptor substrate was used. A 10 μl of enzyme solution for 20 μl of each reaction mixture were added and incubated at 37° C. for various periods. After the incubation the mixture was filtrated with Ultrafree-MC column (Millipore, Bedford, Mass.), and 10 μl aliquot was subjected to reversed-phase high performance liquid chromatography (HPLC) on an ODS-80Ts QA column (4.6×250 mm; Tosoh, Tokyo, Japan). A 0.1% TFA/H2O with 12% acetonitrile was used as a running solution. An ultraviolet spectrophotometer (absorbance at 210 nm), SPD-10AVP (Shimazu, Kyoto, Japan) was used for detection of the peaks. When the pyridyl amino-labeled oligosaccharides were utilized as acceptor substrates, 50 nM substrates were added into the reaction mixtures. For the analyses of the products derived from pyridyl amino labeled oligosaccharides, 100 mM acetic acid/triethylamine (pH4.0) was used as a running solution and the products were eluted with a 30-70% gradient of 1% 1-butanol in running solution at a flow rate of 1.0 ml/min at 55° C.
(§2) To investigate the specificity for acceptor substrates, N- and O-glycans containing GlcNAc on their non-reducing termini were utilized.

[2] = target: T2, NGalNAc-T1 (Homo sapiens, UniProt Q76KP1); assay: as above; conditions: Table 6, O-glycan type acceptors 500 μM; GlcNAcβ-Bz = 100
T2 sequence (Q76KP1 62-1039): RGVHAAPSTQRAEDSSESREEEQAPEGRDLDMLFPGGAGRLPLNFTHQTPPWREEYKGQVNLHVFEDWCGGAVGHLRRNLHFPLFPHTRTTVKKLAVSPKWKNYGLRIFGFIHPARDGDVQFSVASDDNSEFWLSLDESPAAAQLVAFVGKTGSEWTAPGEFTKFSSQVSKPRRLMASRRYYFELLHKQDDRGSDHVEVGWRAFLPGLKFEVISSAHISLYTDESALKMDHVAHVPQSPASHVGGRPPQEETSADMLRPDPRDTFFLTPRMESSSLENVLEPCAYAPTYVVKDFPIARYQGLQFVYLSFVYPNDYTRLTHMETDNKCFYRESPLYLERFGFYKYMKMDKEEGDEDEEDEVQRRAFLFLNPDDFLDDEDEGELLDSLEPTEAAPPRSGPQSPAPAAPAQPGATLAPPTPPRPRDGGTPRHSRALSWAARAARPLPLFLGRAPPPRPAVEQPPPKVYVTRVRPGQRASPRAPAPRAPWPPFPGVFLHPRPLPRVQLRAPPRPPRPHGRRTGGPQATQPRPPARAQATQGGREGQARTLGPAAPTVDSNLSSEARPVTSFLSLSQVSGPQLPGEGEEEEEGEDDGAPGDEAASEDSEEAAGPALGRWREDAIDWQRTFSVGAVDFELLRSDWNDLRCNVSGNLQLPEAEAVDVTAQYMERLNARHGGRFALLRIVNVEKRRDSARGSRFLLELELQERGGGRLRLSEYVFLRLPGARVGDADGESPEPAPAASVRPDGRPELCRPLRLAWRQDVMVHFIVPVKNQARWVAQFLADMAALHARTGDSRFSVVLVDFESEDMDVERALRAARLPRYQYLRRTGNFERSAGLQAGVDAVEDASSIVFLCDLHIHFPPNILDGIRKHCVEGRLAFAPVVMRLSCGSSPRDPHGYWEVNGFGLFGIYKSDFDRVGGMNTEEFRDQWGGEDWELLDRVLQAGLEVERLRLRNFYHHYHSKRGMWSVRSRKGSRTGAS
Protocol: as §1, §2

[3] = target: T1, NGalNAc-T2; assay: Requirements of divalent cations in the activity
Source text: (§3) In addition, the value (263.21 dpm) of MES (pH 6.75) was adopted as a blank value in the case of a non-enzyme. Further, when pH of HEPES buffer was 7.4 for NGalNAc-T1 and 6.75 for NGalNAc-T2, the highest value was shown. […] Hereinafter, MES (pH 6.5) was used in each of experiments.
(§4) Generally, glycosyl transferases require frequently divalent cations. The activity of each enzyme was studied by adding various divalent cations. Consequently, the high values were represented when Mn^2+ in NGalNAc-T1, and Mg^2+, Mn^2+ and Co^2+ in NGalNAc-T2 were added (see Table 5). […] From the above results, it was explained that both enzymes require divalent cations.

[4] = target: T2, NGalNAc-T1; assay: Requirements of divalent cations in the activity
Source text: as §3, §4

[5] = target: T1, NGalNAc-T2; assay: Search for donor substrates, radioactive glycosyltransferase assay; conditions: mixed mono-saccharide acceptor substrates, 16 hours
Protocol: (§5) 15 μg of pFLAG-NGalNAc-T1 or pFLAG-NGalNAc-T2 was induced into 2×10^6 of COS-1, cells which were cultured overnight in DMEM (Dulbecco's modified Eagle's medium) including 10% FCS (fetal calf serum), using Lipofectamine 2000 (Invitrogen Co.) as a protocol provided by the same company. A supernatant of 48-72 hours was collected. The supernatant was mixed with NaN3 (0.05%), NaCl (150 mM), CaCl2 (2 mM) and an anti-M1 resin (Sigma Co.) (50 μl), and the mixture was stirred overnight at 4° C. The solution of reaction mixture was centrifuged (3000 rpm, 5 min, 4° C.) to collect a pellet. The pellet was combined with 900 μl of 2 mM CaCl2/TBS and re-centrifuged (2000 rpm, 5 min, 4° C.), after which the pellet was suspended in 200 μl of 1 mM CaCl2/TBS to give a sample for assaying activity (NGalNAc-T1 or NGalNAc-T2 enzyme solution).
(§6) A search for a donor substrate of the enzyme of the present invention was performed on various mono-saccharide acceptor substrates, using […] of enzyme solution and various acceptor substrates.
(§7) The acceptor substrates were prepared so that each of Gal-α-pNp, Gal-β-oNp, GalNAc-α-Bz, GalNAc-β-pNp, GlcNAc-α-pNp, GlcNAc-β-pNp, Glc-α-pNp, Glc-β-pNp, GlcA-β-pNp, Fuc-α-pNp, Man-α-pNp (thereinbefore, CALBIOCHEM Co.), Xyl-α-pNp, Xyl-β-pNp (thereinbefore, SIGMA Co.) was included in 2.5 nmol/20 μl. Further, the solutions of various donor substrates (UDP-GalNAc, UDP-GlcNAc, UDP-Gal, GDP-Man, UDP-GlcA, UDP-Xyl and GDP-Fuc, thereinbefore, SIGMA Co.) are shown in Table 3.
(§8) All of reaction times were 16 hours. After reaction, non-reactive acceptor substrates with radioactivity were removed with SepPack C18 column (Waters CO.), and radioactivity from donor substrates integrated into acceptor substrates was determined with a liquid scintillation counter.

[6] = target: T2, NGalNAc-T1; assay: as above; conditions: mixed mono-saccharide acceptor substrates, 16 hours
Protocol: as §5, §6, §7, §8

[7] = target: T1, NGalNAc-T2; assay: Search for acceptor substrates, each acceptor by itself; conditions: acceptor 10 nmol/20 μl by itself
Protocol: as §7, §8
(§9) Further, in order to investigate acceptors, reactions were performed using each acceptor (10 nmol/20 μl) by itself. As a result, significant radioactivity was detected in the case of GlcNAc-β-pNp (NGalNAc-T1: 256.26 dpm, NGalNAc-T2: 1221.22 dpm). Based on the above results, it was explained that both of NGalNAc-T1 and NGalNAc-T2 are glycosyl transferases capable of transferring GalNAc to GlcNAc-T.

[8] = target: T2, NGalNAc-T1; assay: as above; conditions: acceptor 10 nmol/20 μl by itself
Protocol: as §7, §8, §9

[9] = divalent cation etc. added, MES (pH 6.5)
[10] = divalent cation etc. added, MES (pH 6.5), blank 263.21 subtracted

Compound | Incorporation of radioactivity (A) [3, 9] [dpm] | (A) − (B) [3, 10] [dpm] | Incorporation of radioactivity (A) [4, 9] [dpm] | (A) − (B) [4, 10] [dpm] | further results
CC(=O)N[C@H]1[C@@H](Oc2ccc([N+](=O)[O-])cc2)O[C@H](CO[C@@H]2O[C@H](CO)[C@@H](O)[C@H](O)[C@H]2NC(C)=O)[C@H](O)[C@@H]1O [GlcNAcβ1-6GalNAcα-pNp] |  |  |  |  | Relative activity (%) [1]: 220.4%; Relative activity (%) [2]: 190.7%
O=S(=O)([O-])[O-].[Cd+2] [CdSO4] | 217.92 | −45.29 | 203.39 | −59.82 | 
CC(=O)N[C@H]1[C@H](OCc2ccccc2)O[C@H](CO)[C@@H](O)[C@@H]1O [GlcNAcβ-Bz] |  |  |  |  | Relative activity (%) [1]: 100%; Relative activity (%) [2]: 100%
CC(=O)NC1C(OC2C(O)C(CO)OC(Oc3ccc([N+](=O)[O-])cc3)C2NC(C)=O)OC(CO)C(O)C1O (centres unmarked) [GlcNAcβ1-3GalNAcα-pNp] |  |  |  |  | Relative activity (%) [1]: 32.3%; Relative activity (%) [2]: 20.0%
[Cl][Mn][Cl] [MnCl2] | 1484.43 | 1221.22 | 519.47 | 256.26 | enzyme activity on adding divalent cation, in words [3]: high values; enzyme activity on adding divalent cation, in words [4]: high values
[Ca+2].[Cl-].[Cl-] [CaCl2] | 217.83 | −45.38 | 230.78 | −32.43 | 
CC(=O)N[C@H]1[C@H](OC[C@H]2O[C@H](Oc3ccc([N+](=O)[O-])cc3)[C@H](NC(C)=O)[C@@H](O[C@@H]3O[C@H](CO)[C@H](O)[C@H](O)[C@H]3O)[C@H]2O)O[C@H](CO)[C@@H](O)[C@@H]1O [GlcNAcβ1-6(Galβ1-3)GalNAcα-pNp] |  |  |  |  | Relative activity (%) [1]: 11.4%; Relative activity (%) [2]: 15.2%
O=C(O)CN(CCN(CC(=O)O)CC(=O)O)CC(=O)O [EDTA] | 235.28 | −27.93 | 242.38 | −20.83 | 
[Cl-].[Cl-].[Co+2] [CoCl2] |  |  |  |  | enzyme activity on adding divalent cation, in words [3]: high values; (A) − (B) ([3]; pH 6.5): 867.42 dpm; Incorporation of radioactivity (A) ([3]; pH 6.5): 1130.63 dpm; (A) − (B) ([4]; pH 6.5): −22.30 dpm; Incorporation of radioactivity (A) ([4]; pH 6.5): 240.91 dpm
[Cl-].[Cl-].[Zn+2] [ZnCl2] | 187.59 | −75.62 | 210.29 | −52.92 | 
[Cl][Cu][Cl] [CuCl2] | 218.35 | −44.86 | 278.77 | 15.56 | 
[Cl-].[Cl-].[Mg+2] [MgCl2] | 3124.16 | 2860.95 | 256.36 | −6.85 | enzyme activity on adding divalent cation, in words [3]: high values
O=C(O)[C@H]1O[C@H](OP(=O)(O)OP(=O)(O)OC[C@H]2O[C@@H](n3ccc(=O)[nH]c3=O)[C@H](O)[C@@H]2O)[C@H](O)[C@@H](O)[C@@H]1O [UDP-GlcA] |  |  |  |  | activity with donor substrate (radioactivity integrated into acceptor substrates) [5]: little background; activity with donor substrate (radioactivity integrated into acceptor substrates) [6]: little background
CC(=O)N[C@H]1[C@H](Oc2ccc([N+](=O)[O-])cc2)O[C@H](CO)[C@@H](O)[C@@H]1O [GlcNAc-β-pNp] |  |  |  |  | radioactivity detected [7]: 1221.22 dpm; radioactivity detected [8]: 256.26 dpm
CC(=O)N[C@H]1[C@@H](OP(=O)(O)OP(=O)(O)OC[C@H]2O[C@@H](n3ccc(=O)[nH]c3=O)[C@H](O)[C@@H]2O)O[C@H](CO)[C@H](O)[C@@H]1O [UDP-GalNAc, UDP-N-acetyl-D-galactosamine] |  |  |  |  | activity with donor substrate (radioactivity integrated into acceptor substrates) [5]: highest activity; activity with donor substrate (radioactivity integrated into acceptor substrates) [6]: highest activity
